Reference: patent publication US20110301125A1, “Method for Treating Macular Degeneration” (SANOFI-AVENTIS, priority 2008, published 2011)
“Also recorded” adds a separate entry of the source.

What was measured:
[1] = system: rat laser-induced macular degeneration model (choroidal neovascularization); test: Example 3: DP antagonist, plaque volume of choroidal neovascularization in rat laser-induced macular degeneration model; format: in vivo, brown Norway rats (Rattus norvegicus); conditions: oral, twice each day on days -1 to 14; CNV volumes measured on day 14; FIG. 4
From the text: FIG. 4 is a histogram of the results of an analysis of the effect of DP antagonist 2-(3-{6-[2-(2,4-dichloro-phenyl)-ethylamino]-2-methoxy-pyrimidin-4-yl}-phenyl)-2-methyl-propionic acid phosphoric acid salt (“Compound V” for purposes of this figure) on the plaque volume of choroidal neovascularization in the rat laser-induced macular degeneration model. Indomethacin was used as a positive control.
In this example, the effect of DP antagonist 2-(3-{6-[2-(2,4-dichloro-phenyl)-ethylamino]-2-methoxy-pyrimidin-4-yl}-phenyl)-2-methyl-propionic acid phosphoric acid salt (the compound) on plaque volume of choroidal neovascularization in the rat laser-induced macular degeneration model. As in the Examples discussed above, brown Norway rats (Rattus norvegicus) were used in this example. The rats received laser coagulation on day 0.[…] The compound was then administered orally twice each day on days −1 to 14. Indomethacin (positive control) was similarly administered twice daily. On day 14, the rats were sacrificed and choroidal neovascular (CNV) volumes were measured on day 14.

[2] = system: rat laser-induced macular degeneration model (choroidal neovascularization); test: Example 4: hPGDS inhibitor, plaque volume of choroidal neovascularization in rat laser-induced macular degeneration model; format: in vivo, brown Norway rats; conditions: oral, twice each day on days -1 to 14; measured after fourteen days; FIG. 5
Protocol: FIG. 5 is a histogram of the results of an analysis of the effect of the hPDGS inhibitor 4-Methyl-2-pyridin-2-yl-pyrimidine-5-carboxylic acid (5-fluoro-3-methyl-indol-1-yl)-amide (“Compound VI” for purposes of this figure) on the plaque volume of choroidal neovascularization in the rat laser-induced macular degeneration model. Indomethacin was used as a positive control.
In this example, the same experiment was performed with the rat laser-induced macular degeneration model to determine whether the hPDGS inhibitor 4-Methyl-2-pyridin-2-yl-pyrimidine-5-carboxylic acid (5-fluoro-3-methyl-indol-1-yl)-amide could limit the plaque volume of choroidal neovascularization
In particular, the hPDGS inhibitor 4-Methyl-2-pyridin-2-yl-pyrimidine-5-carboxylic acid (5-fluoro-3-methyl-indol-1-yl)-amide (the compound) was administered orally to the rats twice each day on days −1 to day 14. On day 0, a laser was used to induce choroidal neovascularization in the eye of the brown Norway rats. Indomethacin was administered to a control group similarly, i.e., twice each day from day −1 to day 14.
After fourteen days, the rats were sacrificed and the plaque volume of choroidal neovascularization in the eye was measured.

[3] = system: rat laser induced macular degeneration model (choroidal neovascularization); test: Example 1: rat laser-induced choroidal neovascularization, histopathology of CNV plaque thickness (first set of study); format: in vivo, Brown Norway rats (Rattus norvegicus)
From the text: Fifty male Brown Norway (strain BN/RijHsd) rats (Rattus norvegicus), 4-7 weeks old (50-124 g each), were purchased from Harlan (Indianapolis, Ind.), received in good condition. The animals were quarantined and acclimated for three (3) days. […] 50 animals were arbitrarily assigned to study groups and given permanent identification numbers.
The retinae (both eyes of each rat) were lased using a retinal lasering device with an attached Kowa PortSlit, SC14; Keeler Fison Indirect Ophthalmoscope (Lens 30 Diopter). Rats were briefly anesthetized and the eyes were dilated and coverslips were used as necessary to flatten the cornea. Each retina was lased with 186 mW, 75 μm spot sizes, 0.1 sec duration, applied to (approximately) 9-, 12- and 3-o'clock positions, 2-3 disk diameters from the optic nerve of each eye as feasible as determined by the surgeon. Rupture of the Bruch's membrane was identified by bubble formation, which occurred immediately at the site of photocoagulation. Rats were briefly anesthetized and administered fluoroscein to visualize the retinal vasculature post surgically and prior to necropsy. Representative photographs of the retinas were taken using a Kowa retinal camera for rodents. The photographs were taken to assure that vascular lesions were present immediately following the laser procedure and immediately prior to necropsy.
2-[4-(7-ethyl-5H-pyrrolo[2,3-b]pyrazin-6-yl)-phenyl]-propan-2-ol A and 2-(3-fluoro-phenyl)-4-methyl-pyrimidine-5-carboxylic acid indol-1-ylamide were formulated in vehicle twice weekly during the study. Vehicle consisted of 0.5% methylcellulose, 0.2% Tween 20 in sterile water for injection, and was formulated once weekly. 2-(3-fluoro-phenyl)-4-methyl-pyrimidine-5-carboxylic acid indol-1-ylamide test article was reconstituted in vehicle at 0.6, 2, and 6 mg/mL; 2-(3-fluoro-phenyl)-4-methyl-pyrimidine-5-carboxylic acid indol-1-ylamide control article was reconstituted at 2 mg/mL. All solutions were stored refrigerated at 2-8° C. between dose administrations, and mixed prior to each dose administration.
Animals were dosed via twice daily oral gavage at 5 mL/kg, starting immediately prior to lasing and continuing for 14 days. Dose volumes were recalculated weekly based on the most recent body weight. Note that animals were lased on two sequential days, but were sacrificed together on a single day to facilitate handling during necropsy. Therefore, animals of the first cohort (Groups 1-3) received an extra (29th) dose on the morning of Day 14 to permit terminal bleed and sacrifice within 2-4 hr of final dose administration.
The fundus was photographed on Day 0, at the time of lasing or shortly thereafter, and on Day 13 or 14, prior to sacrifice. At each time point, retinal vasculature was illuminated by intravenous (IV) injection of each animal, several minutes before photography, with 0.1 mL of a 10% solution of fluorescein dye. Each eye was dilated with a mydriatic and photographed with Kowa Small Animal Fundus Camera. The purpose of the fundus photography was to confirm the presence lesions following lasing and prior to necropsy. Any animal found not to have lesions would be removed from study and replaced.
Following fundus photography and terminal bleeds, animals were sacrificed per SOPs. […]
The slides were evaluated visually, qualitatively and semi-quantitatively. The nuclei of new vessels growing on the retinal were counted. […]

[4] = system: rat laser-induced macular degeneration model (choroidal neovascularization); test: Example 5: hPGDS inhibitor, CNV volume by flat-mount fluorescence 3D modeling in rat laser-induced macular degeneration model; format: in vivo, BN rats (Rattus norvegicus; strain Brown Norway); conditions: oral, twice (or once) each day on days -1 to 7; CNV volumes measured on day 7; FIGS. 6A, 6B, 6C
Protocol: FIG. 6A is a histogram of the results of the effect of the hPDGS inhibitor 2-Pyridin-2-yl-pyrimidine-5-carboxylic acid 3-[5-(1-hydroxy-1-methyl-ethyl)-1,2,4-oxadiazol-3-yl]-benzylamide (“Compound VII” for purposes of this figure) against a laser-induced choroidal neovascularization in the rat: 1st dose-response study. 2-Pyridin-2-yl-pyrimidine-5-carboxylic acid 3-[5-(1-hydroxy-1-methyl-ethyl)-1,2,4-oxadiazol-3-yl]-benzylamide was administered orally twice each day on days −1 to 7. Doxycycline was used as a positive control.
FIG. 6B is a histogram of the results of the effect of the hPDGS inhibitor 2-pyridin-2-yl-pyrimidine-5-carboxylic acid 3-[5-(1-hydroxy-1-methyl-ethyl)-1,2,4-oxadiazol-3-yl]-benzylamide (“Compound VII” for purposes of this figure) against a laser-induced choroidal neovascularization in the rat: 2nd dose-response study. 2-pyridine-2-yl-pyrimidine-5-carboxylic acid 3-[5-(1-hydroxy-1-methyl-ethyl)-1,2,4-oxadiazol-3-yl]-benzylamide was administered orally twice each day on days −1 to 7. CELEBREX was used as a positive control. […]
In this example, the effect of hPGDS antagonist 2-Pyridin-2-yl-pyrimidine-5-carboxylic acid 3-[5-(1-hydroxy-1-methyl-ethyl)-1,2,4-oxadiazol-3-yl]-benzylamide was evaluated using the rat laser-induced macular degeneration model. […] Choroidal neovascular (CNV) volumes were measured on day 7. […]

COc1nc(NCCc2ccc(Cl)cc2Cl)cc(-c2cccc(C(C)(C)C(=O)O)c2)n1.O=P(O)(O)O [2-(3-{6-[2-(2,4-Dichloro-phenyl)-ethylamino]-2-methoxy-pyrimidin-4-yl}-phenyl)-2-methyl-propionic Acid Phosphoric Acid Salt]
limiting the volume of choroidal neovascularization [1]: very effective

Cc1nc(-c2ccccn2)ncc1C(=O)Nn1cc(C)c2cc(F)ccc21 [4-Methyl-2-pyridin-2-yl-pyrimidine-5-carboxylic acid (5-fluoro-3-methyl-indol-1-yl)-amide]
limiting the plaque volume of choroidal neovascularization [2]: effective; also recorded: very effective

Cc1nc(-c2cccc(F)c2)ncc1C(=O)Nn1ccc2ccccc21 [2-(3-Fluoro-phenyl)-4-methyl-pyrimidine-5-carboxylic acid indol-1-ylamide]
reduction of CNV plaque thickness ([3]; 10 mpk, PO): 40.7%

CC(C)(O)c1nc(-c2cccc(CNC(=O)c3cnc(-c4ccccn4)nc3)c2)no1 [2-Pyridin-2-yl-pyrimidine-5-carboxylic acid 3-[5-(1-hydroxy-1-methyl-ethyl)-1,2,4-oxadiazol-3-yl]-benzylamide]
limiting CNV volume [4]: effective

CCc1c(-c2ccc(C(C)(C)O)cc2)[nH]c2nccnc12 [2-[4-(7-Ethyl-5H-pyrrolo[2,3-b]pyrazin-6-yl)-phenyl]-propan-2-ol]
reduction of CNV plaque thickness ([3]; 3 mpk, PO): 11.3%
reduction of CNV plaque thickness ([3]; 10 mpk, PO): 36.6%
reduction of CNV plaque thickness ([3]; 30 mpk, PO): 32.2%

CC1(C)O[C@@H]2C[C@H]3[C@@H]4CCC5=CC(=O)C=C[C@]5(C)[C@@]4(F)[C@@H](O)C[C@]3(C)[C@]2(C(=O)CO)O1 [Triamcinolone Acetonide, reference compound]
reduction of CNV plaque thickness ([3]; positive control, intravitreal injection): 25.9%
